What was measured:
Format in all cases: functional
HL-60 = assay: Cytotoxicity against human HL60 cells; conditions: Homo sapiens, HL-60
K562 = assay: Cytotoxicity against human K562 cells
MOLT-4 = assay: Cytotoxicity against human MOLT4 cells
RPMI-8226 = assay: Cytotoxicity against human RPMI8226 cells
SR = assay: Cytotoxicity against human SR cells
A549 = assay: Cytotoxicity against human A549 cells
HOP-62 = assay: Cytotoxicity against human HOP62 cells
HOP-92 = assay: Cytotoxicity against human HOP92 cells
NCI-H226 = assay: Cytotoxicity against human NCI-H226 cells
NCI-H23 = assay: Cytotoxicity against human NCI-H23 cells
NCI-H322M = assay: Cytotoxicity against human NCI-H322M cells
NCI-H460 = assay: Cytotoxicity against human NCI-H460 cells
LOX IMVI = assay: Cytotoxicity against human LOX IMVI cells
COLO 205 = assay: Cytotoxicity against human COLO205 cells
HCC 2998 = assay: Cytotoxicity against human HCC2998 cells
HCT-15 = assay: Cytotoxicity against human HCT15 cells
SW-620 = assay: Cytotoxicity against human SW620 cells
SF-268 = assay: Cytotoxicity against human SF268 cells
SF-295 = assay: Cytotoxicity against human SF295 cells
SF-539 = assay: Cytotoxicity against human SF539 cells
U-251 = assay: Cytotoxicity against human U251cells
Malme-3M = assay: Cytotoxicity against human MALME-3M cells
M14 = assay: Cytotoxicity against human M14 cells
SK-MEL-28 = assay: Cytotoxicity against human SK-MEL-28 cells
SK-MEL-5 = assay: Cytotoxicity against human SK-MEL-5 cells
UACC-257 = assay: Cytotoxicity against human UACC257 cells
UACC-62 = assay: Cytotoxicity against human UACC62 cells
IGROV-1 = assay: Cytotoxicity against human IGROV1 cells
OVCAR-3 = assay: Cytotoxicity against human OVCAR-3 cells
OVCAR-4 = assay: Cytotoxicity against human OVCAR4 cells
OVCAR-5 = assay: Cytotoxicity against human OVCAR5 cells
OVCAR-8 = assay: Cytotoxicity against human OVCAR8 cells
SK-OV-3 = assay: Cytotoxicity against human SK-OV-3 cells
786-0 = assay: Cytotoxicity against human 786-0 cells
A498 = assay: Cytotoxicity against human A498 cells
ACHN = assay: Cytotoxicity against human ACHN cells
RXF 393 = assay: Cytotoxicity against human RXF393 cells
SN12C = assay: Cytotoxicity against human SN12C cells
TK-10 = assay: Cytotoxicity against human TK10 cells
UO-31 = assay: Cytotoxicity against human UO31 cells
PC-3 = assay: Cytotoxicity against human PC3 cells
DU-145 = assay: Cytotoxicity against human DU145 cells
MCF7 = assay: Cytotoxicity against human MCF7 cells
NCI/ADR-RES = assay: Cytotoxicity against human NCI/ADR-RES cells
BT-549 = assay: Cytotoxicity against human BT549 cells
T47D = assay: Cytotoxicity against human T47D cells
[1] = read-out: Log LC50 (the source's name) (converted)

For `CC(=O)C1=CC[C@H]2[C@]3(C)CC[C@H]4C(C)(C)CCC[C@]4(C(=O)O)[C@H]3CC(=O)[C@]2(C)[C@H]1C=O`, the GI50 (HL-60) was 0.282 µM, the CC50 (HL-60; [1]) was 6.31 µM and the TGI (HL-60; read-out: Log TGI (converted)) was 1.38 µM. The GI50 (K562) was 2.04 µM, the CC50 (K562; [1]) was 20.9 µM and the TGI (K562; read-out: Log TGI (converted)) was 5.01 µM. It also gave a GI50 (MOLT-4) of 0.257 µM, a CC50 (MOLT-4; [1]) of 4.47 µM and a TGI (MOLT-4; read-out: Log TGI (converted)) of 0.912 µM. For the same molecule, the GI50 (RPMI-8226) was 0.603 µM, the CC50 (RPMI-8226; [1]) was 12.9 µM and the TGI (RPMI-8226; read-out: Log TGI (converted)) was 2.34 µM. For the same molecule, the GI50 (SR) was 0.457 µM, the CC50 (SR; [1]) was 6.76 µM and the TGI (SR; read-out: Log TGI (converted)) was 1.86 µM. The GI50 (A549) was 2.57 µM, the CC50 (A549; [1]) was 74.1 µM and the TGI (A549; read-out: Log TGI (converted)) was 12.6 µM. For the same molecule, the GI50 (HOP-62) was 1.35 µM, the CC50 (HOP-62; [1]) was 5.75 µM and the TGI (HOP-62; read-out: Log TGI (converted)) was 2.75 µM. It also gave a GI50 (HOP-92) of 1.91 µM, a CC50 (HOP-92; [1]) of 7.41 µM and a TGI (HOP-92; read-out: Log TGI (converted)) of 3.72 µM. It also gave a GI50 (NCI-H226) of 1.82 µM, a TGI (NCI-H226; read-out: Log TGI (converted)) of 3.8 µM and a GI50 (NCI-H23) of 2 µM. For the same molecule, the CC50 (NCI-H23; [1]) was 9.12 µM, the TGI (NCI-H23; read-out: Log TGI (converted)) was 4.27 µM and the GI50 (NCI-H322M) was 3.55 µM. For the same molecule, the CC50 (NCI-H322M; [1]) was 42.7 µM, the TGI (NCI-H322M; read-out: Log TGI (converted)) was 10.5 µM and the GI50 (NCI-H460) was 1.66 µM. For the same molecule, the CC50 (NCI-H460; [1]) was 8.71 µM, the TGI (NCI-H460; read-out: Log TGI (converted)) was 3.8 µM and the GI50 (LOX IMVI) was 1.45 µM. The CC50 (LOX IMVI; [1]) was 5.62 µM, the TGI (LOX IMVI; read-out: Log TGI (converted)) was 2.82 µM and the GI50 (COLO 205) was 0.794 µM. It also gave a CC50 (COLO 205; [1]) of 7.41 µM, a TGI (COLO 205; read-out: Log TGI (converted)) of 2.57 µM and a GI50 (HCC 2998) of 1.62 µM. It also gave a CC50 (HCC 2998; [1]) of 5.62 µM, a TGI (HCC 2998; read-out: Log TGI (converted)) of 3.02 µM and a GI50 (HCT-15) of 0.759 µM. It also gave a CC50 (HCT-15; [1]) of 5.25 µM, a TGI (HCT-15; read-out: Log TGI (converted)) of 2.14 µM and a GI50 (SW-620) of 0.324 µM. The CC50 (SW-620; [1]) was 3.39 µM, the TGI (SW-620; read-out: Log TGI (converted)) was 1.12 µM and the GI50 (SF-268) was 1.2 µM. For the same molecule, the CC50 (SF-268; [1]) was 7.24 µM, the TGI (SF-268; read-out: Log TGI (converted)) was 2.95 µM and the GI50 (SF-295) was 1.45 µM. For the same molecule, the CC50 (SF-295; [1]) was 6.92 µM, the TGI (SF-295; read-out: Log TGI (converted)) was 3.16 µM and the GI50 (SF-539) was 0.741 µM. The CC50 (SF-539; [1]) was 4.57 µM, the TGI (SF-539; read-out: Log TGI (converted)) was 2.04 µM and the GI50 (U-251) was 1.23 µM. The CC50 (U-251; [1]) was 5.01 µM, the TGI (U-251; read-out: Log TGI (converted)) was 2.45 µM and the GI50 (Malme-3M) was 1.62 µM. The CC50 (Malme-3M; [1]) was 6.76 µM, the TGI (Malme-3M; read-out: Log TGI (converted)) was 3.31 µM and the GI50 (M14) was 1.82 µM. For the same molecule, the CC50 (M14; [1]) was 6.92 µM, the TGI (M14; read-out: Log TGI (converted)) was 3.55 µM and the GI50 (SK-MEL-28) was 0.355 µM. It also gave a CC50 (SK-MEL-28; [1]) of 4.47 µM, a TGI (SK-MEL-28; read-out: Log TGI (converted)) of 1.35 µM and a GI50 (SK-MEL-5) of 1.45 µM. For the same molecule, the CC50 (SK-MEL-5; [1]) was 5.25 µM, the TGI (SK-MEL-5; read-out: Log TGI (converted)) was 2.75 µM and the GI50 (UACC-257) was 2.4 µM. For the same molecule, the CC50 (UACC-257; [1]) was 42.7 µM, the TGI (UACC-257; read-out: Log TGI (converted)) was 6.46 µM and the GI50 (UACC-62) was 1.74 µM. For the same molecule, the CC50 (UACC-62; [1]) was 5.89 µM, the TGI (UACC-62; read-out: Log TGI (converted)) was 3.24 µM and the GI50 (IGROV-1) was 2.57 µM. The CC50 (IGROV-1; [1]) was 50.1 µM, the TGI (IGROV-1; read-out: Log TGI (converted)) was 8.13 µM and the GI50 (OVCAR-3) was 0.295 µM. For the same molecule, the CC50 (OVCAR-3; [1]) was 3.47 µM, the TGI (OVCAR-3; read-out: Log TGI (converted)) was 1.02 µM and the GI50 (OVCAR-4) was 0.813 µM. It also gave a CC50 (OVCAR-4; [1]) of 56.2 µM, a TGI (OVCAR-4; read-out: Log TGI (converted)) of 4.68 µM and a GI50 (OVCAR-5) of 1.86 µM. It also gave a CC50 (OVCAR-5; [1]) of 8.91 µM, a TGI (OVCAR-5; read-out: Log TGI (converted)) of 4.07 µM and a GI50 (OVCAR-8) of 1.32 µM. The CC50 (OVCAR-8; [1]) was > 100 µM, the TGI (OVCAR-8; read-out: Log TGI (converted)) was 3.63 µM and the GI50 (SK-OV-3) was 3.02 µM. The CC50 (SK-OV-3; [1]) was 37.2 µM, the TGI (SK-OV-3; read-out: Log TGI (converted)) was 10.2 µM and the GI50 (786-0) was 0.603 µM. For the same molecule, the CC50 (786-0; [1]) was 4.37 µM, the TGI (786-0; read-out: Log TGI (converted)) was 1.91 µM and the GI50 (A498) was 1.12 µM. The LC50 (A498) was 15.8 µM, the TGI (A498; read-out: Log TGI (converted)) was 3.63 µM and the GI50 (ACHN) was 0.479 µM. The LC50 (ACHN) was 4.17 µM, the TGI (ACHN; read-out: Log TGI (converted)) was 1.7 µM and the GI50 (RXF 393) was 1.17 µM. It also gave a TGI (RXF 393; read-out: Log TGI (converted)) of 2.57 µM, a GI50 (SN12C) of 1.55 µM and an LC50 (SN12C) of 6.46 µM. It also gave a TGI (SN12C; read-out: Log TGI (converted)) of 3.16 µM, a GI50 (TK-10) of 1.17 µM and an LC50 (TK-10) of 6.61 µM. It also gave a TGI (TK-10; read-out: Log TGI (converted)) of 2.82 µM, a GI50 (UO-31) of 1.2 µM and an LC50 (UO-31) of 5.62 µM. For the same molecule, the TGI (UO-31; read-out: Log TGI (converted)) was 2.57 µM, the GI50 (PC-3) was 0.977 µM and the LC50 (PC-3) was 18.2 µM. For the same molecule, the TGI (PC-3; read-out: Log TGI (converted)) was 3.63 µM, the GI50 (DU-145) was 1.32 µM and the LC50 (DU-145) was 5.5 µM. For the same molecule, the TGI (DU-145; read-out: Log TGI (converted)) was 2.69 µM, the GI50 (MCF7) was 0.813 µM and the LC50 (MCF7) was 51.3 µM. The TGI (MCF7; read-out: Log TGI (converted)) was 9.33 µM, the GI50 (NCI/ADR-RES) was 1.91 µM and the LC50 (NCI/ADR-RES) was 8.91 µM. It also gave a TGI (NCI/ADR-RES; read-out: Log TGI (converted)) of 4.07 µM, a GI50 (BT-549) of 1.26 µM and an LC50 (BT-549) of 6.17 µM. The TGI (BT-549; read-out: Log TGI (converted)) was 2.75 µM, the GI50 (T47D) was 1.17 µM and the LC50 (T47D) was 85.1 µM. The TGI (T47D; read-out: Log TGI (converted)) was 6.61 µM.
